# Experimental data taken from article PMC13489962, “Small-molecule modulation of β-arrestins” (Nature, 2026).
# Entries after “also recorded” stand apart in the source; their conditions may differ.
# Legend:
# [1] = tested on: adult ventricular cardiomyocytes (AT1R); experiment: Adult ventricular cardiomyocyte contractility; format: cell-based, mouse; conditions: 25 μM, 20 min; TRV027 10 μM; paced at 1 Hz
# Description: All animal experiments were approved by the Institutional Animal Care and Use Committee (IACUC) at Duke University Medical Center and performed in accordance with relevant guidelines and regulations. Ventricular cardiomyocytes were freshly isolated from 12- to 16-week-old C57BL/6J wild-type mice using a standard Langendorff perfusion system[39],[74]. The heart was initially cannulated through the aorta and then perfused with an oxygenated buffer at 37 °C (120 mM NaCl, 14.8 mM KCl, 0.6 mM KH2PO4, 0.6 mM Na2HPO4, 1.2 mM MgSO4·7H20, 10 mM HEPES, 4.6 mM NaHCO3, 30 mM taurine, and 5.6 mM glucose, pH 7.3). After 2 min, the buffer was switched to a digestion solution containing 2.4 mg ml^−1 collagenase (Worthington). Following 8 min of digestion, ventricles were transferred to a stopping buffer that included 10% calf serum. Myocytes were then manually dissociated and gradually brought to a physiological Ca^2+ concentration (1.2 mM). Isolated cardiomyocyte was first pretreated with DMSO (0.1%), C5, C46 or C64 (25 µM) for 20 min followed by treatment with HBSS (basal), angiotensin II (positive control, 10 µM) or TRV027 (10 µM). Cells were plated in a chamber (Ionoptix) on a Nikon Eclipse TE300 inverted microscope (40× 0.9 NA objective, MRF00400, Nikon). Cardiomyocytes were paced at 1 Hz and 20 V (MyoPacer, Ionoptix), and sarcomere length was recorded by a MyoCam-S camera (Ionoptix). Ten consecutive contractions per cell (7–12 cells per condition) were averaged to quantify contractility and kinetic parameters (IonWizard 7.2). […] Sample size represents the number of hearts at each condition derived from an average of 7–12 cells per heart for each condition. Statistical comparisons between conditions were performed using one-way ANOVA followed by Sidak post hoc test.
# [2] = target: T1, βARR1–ERK2 interaction (Rattus norvegicus, UniProt P29066); experiment: Flag pulldown of βARR1 with ERK2; format: biochemical; conditions: 20-fold molar excess of compound, 30 min
# T1 construct: βARR1 or βARR2 construct, with their C terminus truncated (at amino acid 393 or 394, respectively); GST (pGEX4T1) (N, cleaved yes); made in house
# Description: (§1) To assess the effects of the compounds on βARR1 interactions with its effector proteins SRC and JNK3, βARR1–Flag (5 μM) was incubated with a 20-fold molar excess of Cmpd-5, Cmpd-46 or Cmpd-64 for 30 min at room temperature. Subsequently, 15 μM of SRC or JNK3 was added. To evaluate compound effects on βARR1–ERK2 binding, βARR1 (15 μM) was pre-incubated with a 20-fold molar excess of Cmpd-5, Cmpd-46 or Cmpd-64 for 30 min at room temperature, followed by the addition of 5 μM ERK2–Flag. Afterward, 50 μl of anti-Flag M2 affinity gel (Millipore Sigma) was added, and the mixtures were incubated for 1 h at room temperature with rotation. The resin was then collected by centrifugation and washed 3 times with 1 ml of 20 mM HEPES (pH 7.5), 100 mM NaCl. Bound proteins were eluted using 0.2 mg ml^−1 Flag peptide in 20 mM HEPES (pH 7.5), 100 mM NaCl, mixed with Laemmli sample buffer (Bio-Rad), and analysed by SDS–PAGE followed by western blotting. Detection was performed using monoclonal anti-Flag M2-peroxidase (HRP) antibody (1:2,000, Sigma-Aldrich A8592, RRID:AB_439702) for βARR1–Flag and ERK2–Flag; polyclonal A1CT antibody[76] (1:5,000) for βARR1; anti-SRC monoclonal antibody (1:10,000, EMD Millipore 05-184, RRID:AB_2302631) for SRC; and anti-JNK3 monoclonal antibody (1:5,000, Cell Signaling 2305, RRID:AB_2281744) for JNK3. Western blot images were taken using Bio-Rad ChemiDoc system and the densitometry analysis was performed by ImageLab v6.1 and statistical differences were determined by one-way ANOVA with Dunnett’s post hoc test in GraphPad Prism software.
# [3] = tested on: β2AR desensitization (cAMP); experiment: FRET (ICUE2) cAMP accumulation, β2AR desensitization; format: cell-based; conditions: 40 μM, 5 min; Iso 10 μM; HEK293 cells stably expressing β2AR
# Description: To measure cellular cAMP production in live cells mediated by stimulatory G protein, Gαs-coupled β2AR activation, FRET-based Epac sensors were used as described previously. The Epac2 (ICUE2) sensor contains a CFP and YFP FRET pair. HEK293 cells stably expressing ICUE2 were plated in poly-D-lysine-coated, black, clear-bottom 96-well plates (Corning) at a density of 50,000 cells per well. At least 16 h after plating, cells were washed with PBS and incubated in HEPES-buffered saline solution (10 mM HEPES, 150 mM NaCl, 5 mM KCl, 1.5 mM MgCl2, 1.5 mM CaCl2, 10 mM glucose, 0.2% BSA, pH 7.4) for 1 h at 37 °C. Cells were then treated with either β-arrestin small-molecule modulators (40 μM) or DMSO for 5 min, and baseline fluorescence was monitored. Real-time cAMP measurement was initiated by stimulating cells with 10 μM Iso at 37 °C. FRET changes corresponding to cAMP accumulation were measured as changes in the background-subtracted 480 nm/535 nm fluorescence emission ratio (CFP/YFP), reflecting changes in cAMP levels. The entire cAMP accumulation profile was quantified by calculating the AUC for the time course. To assess the effect of modulators on the agonist-induced cAMP response, AUC values were expressed as a percentage of the response to Iso in the presence of DMSO (set as 100%), enabling comparison of the effect of each modulator relative to this agonist-alone control.
# [4] = target: T2, βARR1–JNK3 interaction (Rattus norvegicus, UniProt P29066); experiment: Flag pulldown of βARR1 with JNK3; format: biochemical; conditions: 20-fold molar excess of compound, 30 min
# T2 construct: made in house
# Description: as §1
# [5] = target: T3, βARR1–SRC interaction (Rattus norvegicus, UniProt P29066); experiment: Flag pulldown of βARR1 with SRC; format: biochemical; conditions: 20-fold molar excess of compound, 30 min
# T3 construct: made in house
# Description: as §1
# T3 sequence (P29066 whole entry): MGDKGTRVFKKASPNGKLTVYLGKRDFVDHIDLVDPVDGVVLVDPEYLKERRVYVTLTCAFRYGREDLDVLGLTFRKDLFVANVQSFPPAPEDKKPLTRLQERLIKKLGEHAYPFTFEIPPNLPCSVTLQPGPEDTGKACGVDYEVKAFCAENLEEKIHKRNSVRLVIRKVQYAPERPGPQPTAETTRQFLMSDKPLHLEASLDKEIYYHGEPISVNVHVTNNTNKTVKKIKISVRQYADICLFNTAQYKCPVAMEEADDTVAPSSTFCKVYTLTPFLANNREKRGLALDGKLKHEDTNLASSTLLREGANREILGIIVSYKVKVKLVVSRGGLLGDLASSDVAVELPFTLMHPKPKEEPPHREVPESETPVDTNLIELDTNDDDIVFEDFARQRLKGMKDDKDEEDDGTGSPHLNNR
# T2 sequence (P29066 whole entry): as above
# T2 sequence (P53779 whole entry partner): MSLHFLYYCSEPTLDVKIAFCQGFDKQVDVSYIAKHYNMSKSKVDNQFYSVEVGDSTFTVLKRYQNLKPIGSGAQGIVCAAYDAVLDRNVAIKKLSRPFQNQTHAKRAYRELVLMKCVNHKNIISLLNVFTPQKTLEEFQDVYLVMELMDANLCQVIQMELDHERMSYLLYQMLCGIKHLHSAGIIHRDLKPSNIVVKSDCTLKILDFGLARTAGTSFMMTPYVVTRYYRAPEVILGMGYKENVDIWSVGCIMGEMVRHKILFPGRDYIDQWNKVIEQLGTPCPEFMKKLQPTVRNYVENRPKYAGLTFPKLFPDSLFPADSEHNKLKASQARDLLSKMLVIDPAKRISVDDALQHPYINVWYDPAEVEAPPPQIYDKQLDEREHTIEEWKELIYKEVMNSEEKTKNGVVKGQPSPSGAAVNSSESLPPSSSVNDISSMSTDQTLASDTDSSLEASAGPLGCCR
# T1 sequence (P29066 1-393): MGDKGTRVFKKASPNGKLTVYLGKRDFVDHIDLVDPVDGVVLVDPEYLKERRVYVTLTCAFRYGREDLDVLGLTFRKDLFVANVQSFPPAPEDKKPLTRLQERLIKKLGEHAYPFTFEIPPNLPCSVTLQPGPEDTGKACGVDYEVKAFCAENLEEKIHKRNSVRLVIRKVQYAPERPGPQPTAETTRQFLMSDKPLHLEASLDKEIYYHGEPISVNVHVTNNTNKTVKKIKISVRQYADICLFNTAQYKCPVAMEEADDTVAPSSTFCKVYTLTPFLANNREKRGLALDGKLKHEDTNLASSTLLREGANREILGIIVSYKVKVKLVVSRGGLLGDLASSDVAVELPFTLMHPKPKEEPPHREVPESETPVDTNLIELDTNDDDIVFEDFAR
SMILES,"effect on TRV027-enhanced sarcomere shortening, contraction and relaxation velocity [1]",effect on βARR1 binding to ERK2 [2],Iso-induced cAMP accumulation (AUC) relative to DMSO (set to 100%) [3] [%],effect on βARR1 binding to JNK3 [4],effect on βARR1 binding to SRC [5]
"C=C1C(=O)[C@]23[C@H](O)[C@H]1CC[C@H]2[C@@]12CO[C@]3(O)[C@@H](O)[C@@H]1C(C)(C)CC[C@@H]2O [Cmpd-5, (1S,4aR,5S,6S,6aR,9S,11aS,11bS,14R)-1,5,6,14-tetrahydroxy−4,4-dimethyl-8-methylenedecahydro-1H-6,11b-(epoxymethano)-6a,9-methanocyclohepta[a]naphthalen-7(8H)-one]",significantly inhibited,reduced; also recorded: significantly inhibited,191,minimal change,reduced
"C=C1C(=O)C2=CC1CCC(=O)C1(C)CCC(OCC)C(C)(C)C1CC2O (stereo not drawn) [Cmpd-46, (Z)-3-ethoxy-6-hydroxy-4,4,13a-trimethyl-9-methylene-1,2,3,4,4a,5,6,9,10,11,12,13a-dodecahydro-7,10-(metheno)benzo[11]annulene-8,13-dione]",significantly inhibited,reduced,207,minimal change,markedly reduced
"C=C1C(=O)OC2CC3(C)OC3CCC(C)=CC(OC(C)=O)C12 (stereo not drawn) [Cmpd-64, (Z)-4,10a-dimethyl-7-methylene-8-oxo-1a,2,3,6,6a,7,8,9a,10,10a decahydrooxireno[2’,3’:8,9]cyclodeca[1,2-b]furan-6-yl acetate]",significantly inhibited,reduced,282,minimal change,markedly reduced
